Results on three compounds are retold here after ChEMBL document CHEMBL1137374, “Discovery of 6-N,N-bis(2,2,2-trifluoroethyl)amino- 4-trifluoromethylquinolin-2(1H)-one as a novel selective androgen receptor modulator” (J Med Chem, 2006).

The subject of assay [1] is Rattus norvegicus. The experiment in a line: Androgenic activity in orchidectomized rat at 2.0 mg/kg, sc measured as increase in ventral prostate weight to eugonadal level. The format is functional, organism-based. The conditions noted are these: Prostate gland. Details: dose 2 mg/kg.
In assay [2] the test system is Rattus norvegicus. Put plainly: Anabolic activity in orchidectomized rat at 2.0 mg/kg, sc measured as increase in levator ani muscle weight to eugonadal level. On the set-up: dose 2 mg/kg. Format: functional, organism-based.
Assay [3] deals with T1, Estrogen receptor (Homo sapiens, UniProt P03372).
T1 sequence (P03372 whole entry): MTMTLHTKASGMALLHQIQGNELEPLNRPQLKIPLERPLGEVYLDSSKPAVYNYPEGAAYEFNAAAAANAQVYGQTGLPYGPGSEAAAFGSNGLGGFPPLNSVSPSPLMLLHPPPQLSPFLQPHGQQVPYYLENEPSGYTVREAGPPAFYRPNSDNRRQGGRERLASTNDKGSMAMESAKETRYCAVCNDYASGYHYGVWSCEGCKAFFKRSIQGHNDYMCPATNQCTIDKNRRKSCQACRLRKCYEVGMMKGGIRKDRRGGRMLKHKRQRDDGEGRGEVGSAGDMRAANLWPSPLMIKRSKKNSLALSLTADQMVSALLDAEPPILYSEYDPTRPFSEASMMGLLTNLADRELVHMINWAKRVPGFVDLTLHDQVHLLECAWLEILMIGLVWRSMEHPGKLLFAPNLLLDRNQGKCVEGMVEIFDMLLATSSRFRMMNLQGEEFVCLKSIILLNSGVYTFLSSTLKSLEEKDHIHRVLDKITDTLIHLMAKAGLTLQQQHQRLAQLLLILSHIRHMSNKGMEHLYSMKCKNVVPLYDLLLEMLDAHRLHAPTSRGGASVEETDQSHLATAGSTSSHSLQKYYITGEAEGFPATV
Description: Binding affinity to estrogen receptor

Assay [4] concerns the target T2, Glucocorticoid receptor (Homo sapiens, UniProt P04150).
T2 sequence (P04150 whole entry): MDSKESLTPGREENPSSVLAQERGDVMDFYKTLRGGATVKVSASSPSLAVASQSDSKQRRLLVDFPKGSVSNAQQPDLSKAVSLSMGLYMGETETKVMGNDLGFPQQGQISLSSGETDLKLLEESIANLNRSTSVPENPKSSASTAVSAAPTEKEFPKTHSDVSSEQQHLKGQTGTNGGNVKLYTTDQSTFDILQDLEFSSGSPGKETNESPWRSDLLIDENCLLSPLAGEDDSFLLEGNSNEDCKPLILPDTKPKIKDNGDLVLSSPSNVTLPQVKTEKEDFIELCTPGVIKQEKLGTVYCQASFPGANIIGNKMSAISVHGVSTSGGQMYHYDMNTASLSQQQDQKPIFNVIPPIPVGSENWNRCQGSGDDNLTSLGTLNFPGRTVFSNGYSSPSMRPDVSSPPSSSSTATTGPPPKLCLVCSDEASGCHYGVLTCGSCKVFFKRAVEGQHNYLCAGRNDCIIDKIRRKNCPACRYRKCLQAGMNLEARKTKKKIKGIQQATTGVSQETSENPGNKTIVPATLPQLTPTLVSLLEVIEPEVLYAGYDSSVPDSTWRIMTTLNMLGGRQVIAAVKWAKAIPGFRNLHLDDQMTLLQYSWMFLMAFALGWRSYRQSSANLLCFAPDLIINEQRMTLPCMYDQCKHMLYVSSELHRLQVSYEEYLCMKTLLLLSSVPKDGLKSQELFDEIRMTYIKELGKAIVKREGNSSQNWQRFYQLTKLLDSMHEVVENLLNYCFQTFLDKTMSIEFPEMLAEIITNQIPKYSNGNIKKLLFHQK
The experiment in a line: Binding affinity to glucocorticoid receptor.

Assay [5] deals with Rattus norvegicus. Put plainly: Androgenic activity in orchidectomized rat at 100 mg/kg, po measured as increase in ventral prostate weight to intact level. The format is functional, organism-based. Details: dose 100 mg/kg. Particulars: Prostate gland.
Assay [6] concerns Rattus norvegicus. The experiment in a line: Anabolic activity in orchidectomized rat at 3.0 mg/kg, po measured as increase in levator ani muscle weight to eugonadal level. The format is functional, organism-based. Details: dose 3 mg/kg.
The target in assay [7] is T3, Progesterone receptor (Homo sapiens, UniProt P06401).
T3 sequence (P06401 whole entry): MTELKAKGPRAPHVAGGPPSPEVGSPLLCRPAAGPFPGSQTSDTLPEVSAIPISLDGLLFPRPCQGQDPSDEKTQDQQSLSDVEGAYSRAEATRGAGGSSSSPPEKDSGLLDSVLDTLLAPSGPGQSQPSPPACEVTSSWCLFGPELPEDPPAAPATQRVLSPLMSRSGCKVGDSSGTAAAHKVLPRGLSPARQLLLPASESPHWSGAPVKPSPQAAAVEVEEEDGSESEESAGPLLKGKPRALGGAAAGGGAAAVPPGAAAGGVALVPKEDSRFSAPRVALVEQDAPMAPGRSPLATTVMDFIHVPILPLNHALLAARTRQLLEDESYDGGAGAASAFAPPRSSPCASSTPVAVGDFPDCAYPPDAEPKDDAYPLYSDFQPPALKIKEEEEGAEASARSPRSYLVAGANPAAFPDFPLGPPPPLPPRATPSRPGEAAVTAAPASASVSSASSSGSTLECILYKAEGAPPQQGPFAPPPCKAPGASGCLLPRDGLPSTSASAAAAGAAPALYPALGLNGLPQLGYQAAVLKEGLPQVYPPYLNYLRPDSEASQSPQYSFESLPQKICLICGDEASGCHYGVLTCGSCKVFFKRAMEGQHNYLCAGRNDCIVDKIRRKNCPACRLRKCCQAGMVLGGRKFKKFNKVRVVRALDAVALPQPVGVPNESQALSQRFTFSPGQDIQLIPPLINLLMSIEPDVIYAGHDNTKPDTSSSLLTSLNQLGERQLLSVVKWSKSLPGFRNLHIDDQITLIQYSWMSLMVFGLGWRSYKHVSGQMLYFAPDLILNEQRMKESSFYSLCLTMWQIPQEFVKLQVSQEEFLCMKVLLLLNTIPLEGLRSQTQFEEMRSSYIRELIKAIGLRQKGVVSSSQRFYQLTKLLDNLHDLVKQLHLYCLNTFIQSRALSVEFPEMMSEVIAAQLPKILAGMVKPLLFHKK
Description: Binding affinity to progesterone receptor

The target of assay [8] is T4, Mineralocorticoid receptor (Homo sapiens, UniProt P08235).
T4 sequence (P08235 whole entry): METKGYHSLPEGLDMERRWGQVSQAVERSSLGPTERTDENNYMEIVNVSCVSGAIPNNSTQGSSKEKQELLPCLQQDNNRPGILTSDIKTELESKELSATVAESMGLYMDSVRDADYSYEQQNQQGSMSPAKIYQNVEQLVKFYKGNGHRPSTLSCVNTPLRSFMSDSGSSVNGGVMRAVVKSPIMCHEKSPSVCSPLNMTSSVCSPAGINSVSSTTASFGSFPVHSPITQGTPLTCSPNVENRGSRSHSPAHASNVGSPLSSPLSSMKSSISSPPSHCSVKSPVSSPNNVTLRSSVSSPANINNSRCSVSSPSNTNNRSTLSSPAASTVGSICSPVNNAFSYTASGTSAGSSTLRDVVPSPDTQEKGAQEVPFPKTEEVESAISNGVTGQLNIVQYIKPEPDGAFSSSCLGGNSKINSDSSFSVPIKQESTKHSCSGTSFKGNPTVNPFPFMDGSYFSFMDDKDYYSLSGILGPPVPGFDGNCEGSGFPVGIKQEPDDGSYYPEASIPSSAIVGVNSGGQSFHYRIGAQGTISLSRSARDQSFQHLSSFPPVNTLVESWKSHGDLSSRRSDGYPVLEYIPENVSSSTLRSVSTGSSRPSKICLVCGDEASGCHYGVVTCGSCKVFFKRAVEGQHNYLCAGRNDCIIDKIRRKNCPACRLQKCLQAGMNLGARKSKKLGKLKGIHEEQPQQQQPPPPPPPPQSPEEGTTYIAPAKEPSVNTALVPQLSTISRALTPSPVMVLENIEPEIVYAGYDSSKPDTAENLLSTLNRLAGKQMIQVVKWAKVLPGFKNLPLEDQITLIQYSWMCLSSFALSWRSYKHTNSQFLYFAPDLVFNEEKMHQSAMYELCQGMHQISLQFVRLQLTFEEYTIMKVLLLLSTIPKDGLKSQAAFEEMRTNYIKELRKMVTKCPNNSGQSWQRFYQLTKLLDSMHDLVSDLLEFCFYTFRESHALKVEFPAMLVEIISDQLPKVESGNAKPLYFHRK
Put plainly: Binding affinity to mineralocorticoid receptor.

Assay [9] is filed under the species Rattus norvegicus. The experiment in a line: Anabolic activity in orchidectomized rat measured as increase in levator ani muscle weight relative to intact rat. The format is functional.
The target of assay [10] is T5, Androgen receptor (Homo sapiens, UniProt P10275).
T5 sequence (P10275 whole entry): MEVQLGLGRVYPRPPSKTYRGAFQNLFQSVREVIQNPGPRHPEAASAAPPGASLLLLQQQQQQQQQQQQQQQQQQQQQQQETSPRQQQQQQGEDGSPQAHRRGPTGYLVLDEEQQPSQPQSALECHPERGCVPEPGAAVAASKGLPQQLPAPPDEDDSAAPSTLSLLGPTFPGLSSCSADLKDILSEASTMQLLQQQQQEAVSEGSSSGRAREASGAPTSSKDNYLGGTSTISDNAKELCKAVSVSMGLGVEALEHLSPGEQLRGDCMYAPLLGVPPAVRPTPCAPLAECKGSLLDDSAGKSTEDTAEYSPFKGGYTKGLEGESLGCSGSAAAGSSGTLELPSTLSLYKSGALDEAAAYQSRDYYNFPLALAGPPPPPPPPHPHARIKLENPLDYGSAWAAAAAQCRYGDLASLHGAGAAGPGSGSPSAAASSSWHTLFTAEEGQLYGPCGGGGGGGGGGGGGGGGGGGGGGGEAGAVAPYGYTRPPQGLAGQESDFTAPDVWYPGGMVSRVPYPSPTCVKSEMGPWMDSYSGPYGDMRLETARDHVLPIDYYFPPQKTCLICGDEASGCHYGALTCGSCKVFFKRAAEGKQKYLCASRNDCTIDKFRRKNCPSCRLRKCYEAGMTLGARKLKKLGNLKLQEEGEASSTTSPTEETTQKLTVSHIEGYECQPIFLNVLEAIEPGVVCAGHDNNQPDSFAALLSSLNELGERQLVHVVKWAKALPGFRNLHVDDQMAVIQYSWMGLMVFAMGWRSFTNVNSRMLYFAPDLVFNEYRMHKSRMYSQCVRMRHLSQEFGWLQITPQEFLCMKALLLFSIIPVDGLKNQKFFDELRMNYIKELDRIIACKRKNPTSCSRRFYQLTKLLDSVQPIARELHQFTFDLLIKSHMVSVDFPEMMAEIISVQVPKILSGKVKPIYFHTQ
Description: Displacement of [3H]DHT from human androgen receptor expressed in MDA-MB-453 cells by whole cell receptor binding assay

Assay [11] has as its target T5, Androgen receptor. The source holds these as a separate data set.
Description: Antagonist activity against human androgen receptor in CV1 cells measured as inhibition of DHT-stimulated luciferase reporter gene activity by cotransfection assay
Assay [12] has as its target T5, Androgen receptor. The source holds these as a separate data set.
Description: Agonist activity at human androgen receptor in CV1 cells measured as stimulation of luciferase reporter gene activity by cotransfection assay

The source made the active and inactive calls. No cut-off for these calls is given here.

On to `C[C@]12CC[C@H]3[C@@H](CCC4=CC(=O)CC[C@@]43C)[C@@H]1CC[C@@H]2O`, for which the result in [1] and in assay [2] was Active.

For `O=c1cc(C(F)(F)F)c2cc(N(CC(F)(F)F)CC(F)(F)F)ccc2[nH]1`, the inhibition constant Ki in assay [3], in [4], in assay [7] and in [8] was greater than 1000 nM each time. For the same compound, the outcome in [5] and in assay [6] was Active. In assay [9], this compound yielded an Activity of 150%.

As for `Oc1cc(C(F)(F)F)c2cc(N(CC3CC3)CC(F)(F)F)ccc2n1`, in assay [10], the Ki (in general, a dissociation constant, usually derived from enzyme kinetics or from competition with a known ligand) came out at 7.1 nM. Besides, the IC50 (in general, the midpoint of a concentration-inhibition curve) in assay [11] is greater than 10000 nM. Also, it took 2.8 nM to reach a half-maximal effect in assay [12] (EC50).
